Laboratory results as given in PubChem BioAssay (NCI).
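How tested: cells in 96-well plates exposed to compound for 48 hours at five concentrations. TGI is the concentration that stops growth completely.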

What was measured:
Assay in all cases: DTP human tumour cell line panel, 48 h
786-0 renal = system: 786-0 renal
A549 NSCLC = system: A549 NSCLC
ACHN renal = system: ACHN renal
BT-549 breast = system: BT-549 breast
CAKI-1 renal = system: CAKI-1 renal
CCRF-CEM leukemia = system: CCRF-CEM leukemia
COLO 205 colon = system: COLO 205 colon
DU-145 prostate = system: DU-145 prostate
EKVX NSCLC = system: EKVX NSCLC
HCC-2998 colon = system: HCC-2998 colon
HCT-116 colon = system: HCT-116 colon
HCT-15 colon = system: HCT-15 colon
HL-60(TB) leukemia = system: HL-60(TB) leukemia
HOP-62 NSCLC = system: HOP-62 NSCLC
HOP-92 NSCLC = system: HOP-92 NSCLC
HS 578T breast = system: HS 578T breast
HT29 colon = system: HT29 colon
IGROV1 ovarian = system: IGROV1 ovarian
KM12 colon = system: KM12 colon
LOX IMVI melanoma = system: LOX IMVI melanoma
M14 melanoma = system: M14 melanoma
MCF7 breast = system: MCF7 breast
MDA-MB-231 breast = system: MDA-MB-231 breast
MDA-MB-435 = system: MDA-MB-435
MDA-N = system: MDA-N
MOLT-4 leukemia = system: MOLT-4 leukemia
NCI-H226 lung = system: NCI-H226 lung
NCI-H23 lung = system: NCI-H23 lung
NCI-H460 lung = system: NCI-H460 lung
NCI-H522 lung = system: NCI-H522 lung
NCI/ADR-RES ovarian = system: NCI/ADR-RES ovarian
OVCAR-3 ovarian = system: OVCAR-3 ovarian
OVCAR-4 ovarian = system: OVCAR-4 ovarian
OVCAR-5 ovarian = system: OVCAR-5 ovarian
OVCAR-8 ovarian = system: OVCAR-8 ovarian
PC-3 prostate = system: PC-3 prostate
SF-268 CNS = system: SF-268 CNS
SF-295 CNS = system: SF-295 CNS
SF-539 CNS = system: SF-539 CNS
SK-MEL-2 melanoma = system: SK-MEL-2 melanoma
SK-MEL-28 melanoma = system: SK-MEL-28 melanoma
SK-MEL-5 melanoma = system: SK-MEL-5 melanoma
SK-OV-3 ovarian = system: SK-OV-3 ovarian
SN12C renal = system: SN12C renal
SNB-19 CNS = system: SNB-19 CNS
SNB-75 CNS = system: SNB-75 CNS
SW-620 colon = system: SW-620 colon
TK-10 renal = system: TK-10 renal
U251 CNS = system: U251 CNS
UACC-257 melanoma = system: UACC-257 melanoma
UACC-62 melanoma = system: UACC-62 melanoma
UO-31 renal = system: UO-31 renal
K-562 leukemia = system: K-562 leukemia
MALME-3M melanoma = system: MALME-3M melanoma
RPMI-8226 leukemia = system: RPMI-8226 leukemia
RXF 393 renal = system: RXF 393 renal
SR leukemia = system: SR leukemia
A498 renal = system: A498 renal

## CC1(C)CC2=C(SC3C=CC=CC3N2)C(=O)C1C(=O)C(N)=O (stereo unspecified)
786-0 renal
  TGI: > 100 µM
A549 NSCLC
  TGI: > 100 µM
ACHN renal
  TGI: > 100 µM
BT-549 breast
  TGI: > 100 µM
CAKI-1 renal
  TGI: > 100 µM
CCRF-CEM leukemia
  TGI: > 100 µM
COLO 205 colon
  TGI: > 100 µM
DU-145 prostate
  TGI: > 100 µM
EKVX NSCLC
  TGI: > 100 µM
HCC-2998 colon
  TGI: > 100 µM
HCT-116 colon
  TGI: > 100 µM
HCT-15 colon
  TGI: > 100 µM
HL-60(TB) leukemia
  TGI: > 100 µM
HOP-62 NSCLC
  TGI: > 100 µM
HOP-92 NSCLC
  TGI: > 100 µM
HS 578T breast
  TGI: > 100 µM
HT29 colon
  TGI: > 100 µM
IGROV1 ovarian
  TGI: > 100 µM
KM12 colon
  TGI: > 100 µM
LOX IMVI melanoma
  TGI: > 100 µM
M14 melanoma
  TGI: > 100 µM
MCF7 breast
  TGI: > 100 µM
MDA-MB-231 breast
  TGI: > 100 µM
MDA-MB-435
  TGI: > 100 µM
MDA-N
  TGI: > 100 µM
MOLT-4 leukemia
  TGI: > 100 µM
NCI-H226 lung
  TGI: > 100 µM
NCI-H23 lung
  TGI: > 100 µM
NCI-H460 lung
  TGI: > 100 µM
NCI-H522 lung
  TGI: > 100 µM
NCI/ADR-RES ovarian
  TGI: > 100 µM
OVCAR-3 ovarian
  TGI: > 100 µM
OVCAR-4 ovarian
  TGI: > 100 µM
OVCAR-5 ovarian
  TGI: > 100 µM
OVCAR-8 ovarian
  TGI: > 100 µM
PC-3 prostate
  TGI: > 100 µM
SF-268 CNS
  TGI: > 100 µM
SF-295 CNS
  TGI: > 100 µM
SF-539 CNS
  TGI: > 100 µM
SK-MEL-2 melanoma
  TGI: > 100 µM
SK-MEL-28 melanoma
  TGI: > 100 µM
SK-MEL-5 melanoma
  TGI: > 100 µM
SK-OV-3 ovarian
  TGI: > 100 µM
SN12C renal
  TGI: > 100 µM
SNB-19 CNS
  TGI: > 100 µM
SNB-75 CNS
  TGI: > 100 µM
SW-620 colon
  TGI: > 100 µM
TK-10 renal
  TGI: > 100 µM
U251 CNS
  TGI: > 100 µM
UACC-257 melanoma
  TGI: > 100 µM
UACC-62 melanoma
  TGI: > 100 µM
UO-31 renal
  TGI: > 100 µM

## CN(CC(=O)O)c1ncc2c(n1)-c1ccccc1OC2c1ccccc1 (stereo unspecified)
A549 NSCLC
  TGI: > 100 µM
ACHN renal
  TGI: > 100 µM
CAKI-1 renal
  TGI: > 100 µM
CCRF-CEM leukemia
  TGI: > 100 µM
COLO 205 colon
  TGI: > 100 µM
DU-145 prostate
  TGI: > 100 µM
EKVX NSCLC
  TGI: > 100 µM
HCT-15 colon
  TGI: > 100 µM
HL-60(TB) leukemia
  TGI: > 100 µM
HOP-62 NSCLC
  TGI: > 100 µM
HOP-92 NSCLC
  TGI: > 100 µM
HS 578T breast
  TGI: > 100 µM
HT29 colon
  TGI: > 100 µM
IGROV1 ovarian
  TGI: > 100 µM
K-562 leukemia
  TGI: > 100 µM
KM12 colon
  TGI: > 100 µM
LOX IMVI melanoma
  TGI: > 100 µM
M14 melanoma
  TGI: > 100 µM
MALME-3M melanoma
  TGI: > 100 µM
MCF7 breast
  TGI: > 100 µM
MDA-MB-231 breast
  TGI: > 100 µM
MDA-MB-435
  TGI: > 100 µM
MDA-N
  TGI: > 100 µM
MOLT-4 leukemia
  TGI: > 100 µM
NCI-H226 lung
  TGI: > 100 µM
NCI-H23 lung
  TGI: > 100 µM
NCI-H460 lung
  TGI: > 100 µM
NCI-H522 lung
  TGI: > 100 µM
NCI/ADR-RES ovarian
  TGI: > 100 µM
OVCAR-3 ovarian
  TGI: > 100 µM
OVCAR-4 ovarian
  TGI: > 100 µM
OVCAR-5 ovarian
  TGI: > 100 µM
OVCAR-8 ovarian
  TGI: > 100 µM
PC-3 prostate
  TGI: > 100 µM
RPMI-8226 leukemia
  TGI: > 100 µM
RXF 393 renal
  TGI: > 100 µM
SF-268 CNS
  TGI: > 100 µM
SF-295 CNS
  TGI: > 100 µM
SF-539 CNS
  TGI: > 100 µM
SK-MEL-2 melanoma
  TGI: > 100 µM
SK-MEL-28 melanoma
  TGI: > 100 µM
SK-MEL-5 melanoma
  TGI: > 100 µM
SK-OV-3 ovarian
  TGI: > 100 µM
SN12C renal
  TGI: > 100 µM
SNB-19 CNS
  TGI: > 100 µM
SNB-75 CNS
  TGI: > 100 µM
SR leukemia
  TGI: > 100 µM
SW-620 colon
  TGI: > 100 µM
TK-10 renal
  TGI: > 100 µM
U251 CNS
  TGI: > 100 µM
UACC-257 melanoma
  TGI: > 100 µM
UACC-62 melanoma
  TGI: > 100 µM
UO-31 renal
  TGI: > 100 µM

## COC(=O)[C@](NC(=O)OCc1ccccc1)([C@@H](C)Sc1ccc(C)cc1)C(F)(F)F
786-0 renal
  TGI: > 100 µM
A498 renal
  TGI: > 100 µM
A549 NSCLC
  TGI: > 100 µM
ACHN renal
  TGI: > 100 µM
BT-549 breast
  TGI: > 100 µM
CAKI-1 renal
  TGI: > 100 µM
CCRF-CEM leukemia
  TGI: 50.7 µM
COLO 205 colon
  TGI: 38.4 µM
DU-145 prostate
  TGI: > 100 µM
EKVX NSCLC
  TGI: > 100 µM
HCC-2998 colon
  TGI: > 100 µM
HCT-116 colon
  TGI: > 100 µM
HCT-15 colon
  TGI: > 100 µM
HL-60(TB) leukemia
  TGI: 78.3 µM
HOP-62 NSCLC
  TGI: > 100 µM
HS 578T breast
  TGI: > 100 µM
HT29 colon
  TGI: > 100 µM
IGROV1 ovarian
  TGI: > 100 µM
K-562 leukemia
  TGI: > 100 µM
KM12 colon
  TGI: > 100 µM
LOX IMVI melanoma
  TGI: > 100 µM
M14 melanoma
  TGI: > 100 µM
MALME-3M melanoma
  TGI: > 100 µM
MCF7 breast
  TGI: > 100 µM
MDA-MB-435
  TGI: > 100 µM
MDA-N
  TGI: > 100 µM
MOLT-4 leukemia
  TGI: > 100 µM
NCI-H23 lung
  TGI: 58.5 µM
NCI-H460 lung
  TGI: > 100 µM
NCI-H522 lung
  TGI: > 100 µM
NCI/ADR-RES ovarian
  TGI: > 100 µM
OVCAR-3 ovarian
  TGI: > 100 µM
OVCAR-4 ovarian
  TGI: > 100 µM
OVCAR-5 ovarian
  TGI: > 100 µM
OVCAR-8 ovarian
  TGI: 60 µM
PC-3 prostate
  TGI: > 100 µM
RPMI-8226 leukemia
  TGI: > 100 µM
SF-268 CNS
  TGI: > 100 µM
SF-295 CNS
  TGI: > 100 µM
SF-539 CNS
  TGI: > 100 µM
SK-MEL-2 melanoma
  TGI: > 100 µM
SK-MEL-28 melanoma
  TGI: > 100 µM
SK-MEL-5 melanoma
  TGI: 38.2 µM
SK-OV-3 ovarian
  TGI: > 100 µM
SNB-19 CNS
  TGI: > 100 µM
SR leukemia
  TGI: > 100 µM
SW-620 colon
  TGI: > 100 µM
U251 CNS
  TGI: > 100 µM
UACC-257 melanoma
  TGI: > 100 µM
UACC-62 melanoma
  TGI: > 100 µM
UO-31 renal
  TGI: > 100 µM
